This passage reports IC50 results from EP4043466B1, “PRC2 INHIBITORS” (Mirati Therapeutics, Inc., priority 2018, dated 2019).

In experiment [1] the target is purified human, His-tagged PRC2 complex (Homo sapiens, UniProt O75530+Q15910). Description: Hot Spot HMT assay: inhibition of PRC2 enzymatic activity (transfer of tritiated methyl from SAM to core histone, filter binding). As to conditions: Inhibition of PRC2-mediated enzymatic activity; 10 nM PRC2 complex, 0.05 mg/ml core histone H3, 1 uM 3H-SAM, 1 hr at 30°C. The class given is biochemical. A digest of the protocol:
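Five-subunit complex (His-EZH2, Flag-EED, His-SUZ12, His-AEBP2, His-RbAp48) at 10 nM with 0.05 mg/ml core histone H3, pH 8 Tris buffer, 1% DMSO; 20 min compound pre-incubation at 30°C. Started with 1 uM [3H]-SAM, 1 hr at 30°C; tritiated H3 counted by scintillation. Compounds diluted from 1.0 µM top concentration.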

Experiment [2] relates to PRC2-mediated histone H3 methylation. Put plainly: Tri-Methyl Histone H3 (Lys 27) Sandwich ELISA in Pfeiffer cells: inhibition of PRC2-mediated histone H3 methylation. To be noted: Inhibition of EZH2-mediated histone H3 trimethylation, Pfeiffer cells (EZH2 A677G), 96 hours incubation. The experiment is classed as cell-based, human. An excerpt:
The Pfeiffer cell line was established from a […] from a patient having metastatic diffuse large B-cell lymphoma (DLBCL). This cell line expresses a mutant form of the EZH2 enzyme (A677G) that results in enhanced EZH2 activity leading to increased methylation of histone H3 Lys27. Increased trimethylation of histone H3 Lys27 is believed to be implicated in tumorgenesis and poor clinical prognosis in lymphomas (McCabe et al., (2012) Nature 492:108-112).
Inhibition of PRC2-mediated histone H3 methylation by compounds of Formula (I) was measured by ELISA using a Tri-Methyl Histone H3 (Lys 27) Sandwich ELISA Kit (Cell Signaling Tech #7866C) in accordance with the manufacturer's instructions. Briefly, Pfeiffer cells were cultured in RPMI medium supplemented with 10% fetal bovine serum and 1% penicillin and 1% streptomycin in 96 well culture plates at 37°C to a density of 8000 cells/90µl/well and the cells were harvested. A series of 3-fold serial dilutions of each test compound of Formula (I) were prepared in RPMI medium and added to the cells at final concentrations ranging from 1µM to 0.15 nM. The plates were incubated at 37°C for 96 hours.
After incubation, the cells were pelleted by centrifugation in a pre-cooled 4°C rotor at 1, 100 rpm for 10 min and the supernatant was removed by aspiration. The cell pellet was resuspended in 55µl of Lysis Buffer (0.4M HCl) and incubated on ice with periodic shaking for 30 minutes. The lysed cells were subjected to centrifugation at 4, 200 rpm for 10 min at 4°C and the supernatant containing acid-soluble proteins was collected and the remainder discarded. The acid-soluble proteins were brought to a neutral pH by the addition of 20 µl of Neutralization Buffer (1 M Sodium phosphate, dibasic (pH 12.5), 2.5 mM DTT and 1 mM PMSF) and the neutralized lysates were analyzed by ELISA.
A 65 µl aliquot of each cell lysate was added to a well of a microwell strip, the microwells were sealed using tape and incubated either at 37°C for two hours or at 4°C overnight. After incubation, the tape was removed at the microwells were washed four times using 200 µl of 1X Wash Buffer. To each washed microwell, a 100 µl aliquot of an antitrimethyl histone H3 Lys27 Detection Antibody solution was added and the microwells were incubated at 37°C for one hour. The Detection Antibody solution was removed by aspiration and the wells were washed four times each using 200 µl of 1X Wash Buffer.
A 100 µl aliquot of an HRP-linked secondary antibody was added to each well, the wells were sealed with tape and incubated at 37°C for 30 min. The HRP-linked secondary antibody solution was removed by aspiration and the wells were washed four times using 200 µl of 1X Wash Buffer. A 100 µl aliquot of a TMB substrate was added to each well, the wells were sealed with tape and incubated at 37°C for 10 min or 25°C for 30 min. The reaction was stopped by the addition of 100 µl aliquot of a STOP solution and the plate was shaken briefly. The degree of histone H3 trimethylation was determined using a spectrophotometric readout by measuring the absorbance at 450 nm and then calculating the amount of trimethylated histone H3. A = ≤100 nM; B = >100 nM - ≤500 nM; C = >500 nM and N.D. = not determined.
A general note: In an ELISA, binding on a coated surface is turned into a signal by an enzyme label.

The next experiment concerns Karpas 422 cells. Put plainly: Karpas 422 cell viability, CTG (Cell Titre Glo) assay. The experiment is classed as cell-based, human. To be noted: Inhibition of proliferation of Karpas 422 cells (EZH2 Y641N), viability measured Day 4, Day 7 or Day 11, time point of the tabulated values not stated. The gist of the method: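 Karpas 422 cells (EZH2 Y641N, DLBCL) plated at 1000 cells/well in RPMI with 20% FBS, exposed to compound 10µM down to 1.5nM in 3-fold steps at 37 °C. Viability by CellTiter-Glo on Days 4, 7 and 11; Day 11 plates re-fed with fresh medium and compound on Day 7. IC50 per time point.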

Sequence of purified human, His-tagged PRC2 complex (Q15910 whole entry): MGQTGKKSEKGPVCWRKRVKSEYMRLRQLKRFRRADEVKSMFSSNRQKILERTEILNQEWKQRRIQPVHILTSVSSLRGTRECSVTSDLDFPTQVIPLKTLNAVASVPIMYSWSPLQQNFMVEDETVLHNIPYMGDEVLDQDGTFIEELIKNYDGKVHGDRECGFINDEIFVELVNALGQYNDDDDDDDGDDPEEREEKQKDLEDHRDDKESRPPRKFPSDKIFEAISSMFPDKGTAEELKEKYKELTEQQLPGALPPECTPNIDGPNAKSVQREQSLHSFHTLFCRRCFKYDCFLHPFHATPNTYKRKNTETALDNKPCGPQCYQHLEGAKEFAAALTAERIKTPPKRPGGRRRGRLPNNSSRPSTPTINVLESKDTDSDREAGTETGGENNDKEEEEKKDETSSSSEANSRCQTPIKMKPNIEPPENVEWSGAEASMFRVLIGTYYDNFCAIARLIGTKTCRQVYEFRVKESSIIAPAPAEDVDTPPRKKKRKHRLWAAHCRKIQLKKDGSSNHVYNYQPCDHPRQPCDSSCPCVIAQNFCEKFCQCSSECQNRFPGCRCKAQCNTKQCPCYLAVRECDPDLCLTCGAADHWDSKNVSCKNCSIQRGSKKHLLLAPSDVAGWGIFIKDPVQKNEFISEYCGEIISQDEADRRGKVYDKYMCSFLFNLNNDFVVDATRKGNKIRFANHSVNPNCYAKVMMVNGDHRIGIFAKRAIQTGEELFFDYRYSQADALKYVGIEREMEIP
Sequence of purified human, His-tagged PRC2 complex (O75530 whole entry): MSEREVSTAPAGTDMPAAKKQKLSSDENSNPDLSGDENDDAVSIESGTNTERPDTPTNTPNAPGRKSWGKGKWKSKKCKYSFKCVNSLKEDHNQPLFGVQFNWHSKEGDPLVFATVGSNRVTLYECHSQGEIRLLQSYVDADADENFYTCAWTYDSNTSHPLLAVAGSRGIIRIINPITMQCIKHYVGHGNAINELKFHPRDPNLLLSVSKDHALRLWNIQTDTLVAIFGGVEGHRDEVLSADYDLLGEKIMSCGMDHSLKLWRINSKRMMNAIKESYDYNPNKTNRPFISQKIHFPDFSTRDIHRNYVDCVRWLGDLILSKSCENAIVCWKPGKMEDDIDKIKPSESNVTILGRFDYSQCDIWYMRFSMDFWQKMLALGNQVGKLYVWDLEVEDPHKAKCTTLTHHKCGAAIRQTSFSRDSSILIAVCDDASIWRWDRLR
Sequence of purified human, His-tagged PRC2 complex (Q15022 whole entry partner): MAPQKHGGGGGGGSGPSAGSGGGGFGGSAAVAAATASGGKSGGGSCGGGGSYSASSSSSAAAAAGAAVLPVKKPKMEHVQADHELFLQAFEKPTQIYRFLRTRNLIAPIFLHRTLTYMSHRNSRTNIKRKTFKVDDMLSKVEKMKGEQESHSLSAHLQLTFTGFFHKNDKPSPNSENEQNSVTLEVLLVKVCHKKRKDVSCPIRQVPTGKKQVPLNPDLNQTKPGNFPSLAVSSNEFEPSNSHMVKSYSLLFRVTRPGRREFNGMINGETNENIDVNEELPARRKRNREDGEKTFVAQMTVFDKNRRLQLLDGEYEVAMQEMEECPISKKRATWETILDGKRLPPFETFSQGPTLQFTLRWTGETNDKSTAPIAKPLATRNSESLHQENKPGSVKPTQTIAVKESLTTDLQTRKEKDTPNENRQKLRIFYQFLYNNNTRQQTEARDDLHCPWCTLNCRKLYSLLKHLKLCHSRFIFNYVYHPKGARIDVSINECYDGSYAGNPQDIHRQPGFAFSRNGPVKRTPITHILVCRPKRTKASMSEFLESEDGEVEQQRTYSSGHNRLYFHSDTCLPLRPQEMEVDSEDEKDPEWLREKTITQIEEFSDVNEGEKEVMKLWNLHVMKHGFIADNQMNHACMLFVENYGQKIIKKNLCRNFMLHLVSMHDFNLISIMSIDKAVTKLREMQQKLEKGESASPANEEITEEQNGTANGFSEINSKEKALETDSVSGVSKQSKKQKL
Sequence of purified human, His-tagged PRC2 complex (Q6ZN18 whole entry partner): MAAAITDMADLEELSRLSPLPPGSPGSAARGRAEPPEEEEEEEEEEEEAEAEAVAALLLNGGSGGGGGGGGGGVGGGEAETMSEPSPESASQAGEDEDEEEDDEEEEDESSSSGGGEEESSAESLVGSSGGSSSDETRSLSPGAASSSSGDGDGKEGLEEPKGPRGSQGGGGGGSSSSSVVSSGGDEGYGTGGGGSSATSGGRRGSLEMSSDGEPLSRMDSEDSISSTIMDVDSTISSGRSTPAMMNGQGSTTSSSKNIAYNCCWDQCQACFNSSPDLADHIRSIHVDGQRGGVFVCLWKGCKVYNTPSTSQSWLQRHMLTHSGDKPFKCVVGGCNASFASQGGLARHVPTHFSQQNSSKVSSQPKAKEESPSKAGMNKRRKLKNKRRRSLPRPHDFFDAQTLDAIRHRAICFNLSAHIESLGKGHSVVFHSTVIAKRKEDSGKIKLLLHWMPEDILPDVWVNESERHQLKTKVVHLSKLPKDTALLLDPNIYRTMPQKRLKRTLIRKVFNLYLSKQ
Sequence of purified human, His-tagged PRC2 complex (Q09028 whole entry partner): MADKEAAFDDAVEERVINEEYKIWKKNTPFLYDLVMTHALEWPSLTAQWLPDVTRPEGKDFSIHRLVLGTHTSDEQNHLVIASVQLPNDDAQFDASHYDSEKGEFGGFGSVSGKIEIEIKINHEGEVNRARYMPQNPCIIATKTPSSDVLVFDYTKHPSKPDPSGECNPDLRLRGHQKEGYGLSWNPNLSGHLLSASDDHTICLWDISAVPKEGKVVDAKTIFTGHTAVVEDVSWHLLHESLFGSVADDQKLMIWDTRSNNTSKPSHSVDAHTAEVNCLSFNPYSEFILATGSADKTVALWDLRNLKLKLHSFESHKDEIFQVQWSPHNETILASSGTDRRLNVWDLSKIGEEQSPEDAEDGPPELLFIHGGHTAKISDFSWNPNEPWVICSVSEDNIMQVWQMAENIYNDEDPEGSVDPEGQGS

For orientation: IC50 means the concentration at which inhibition is half-maximal. Low readings indicate higher potency, high ones lower potency. Take “5-(((5-fluoro-2,3-dihydrobenzofuran-4-yl)methyl)amino)-8-(2-methyl-6-morpholinopyridin-3-yl)imidazo[1,2-c]pyrimidine-2-carbonitrile [Example 56]”: the IC50 is under 100 nM in experiment [1], 100 to 500 nM in experiment [2] and at most 250 nM with Karpas 422 cells.

As to “5-(((5-fluoro-2,3-dihydrobenzofuran-4-yl)methyl)amino)-8-(2-methylpyridin-4-yl)imidazo[1,2-c]pyrimidine-2-carbonitrile [Example 178]”, the IC50 in experiment [1] was 100 to 500 nM; in experiment [2] it was 100 to 500 nM; in the experiment with Karpas 422 cells it was at most 250 nM.

As for “8-(4-((dimethylamino)methyl)phenyl)-5-(((5-fluoro-2,3-dihydrobenzofuran-4-yl)methyl-d2)amino)imidazo[1,2-c]pyrimidine-2-carbonitrile [Example 165]”, the concentration for half-maximal inhibition (IC50) in experiment [1] was under 100 nM; in experiment [2], 100 to 500 nM; in the experiment with Karpas 422 cells it was at most 250 nM.

As to `Cc1cc(C2CCCN2)ccc1-c1cnc(NCc2c(F)ccc3c2CCO3)n2cc(C#N)nc12` (single isomer, unassigned) [Example 214, 5-(((5-fluoro-2,3-dihydrobenzofuran-4-yl)methyl)amino)-8-(2-methyl-4-(pyrrolidin-2-yl)phenyl)imidazo[1,2-c]pyrimidine-2-carbonitrile], the IC50 in experiment [1] was under 100 nM; in experiment [2], 100 to 500 nM; with Karpas 422 cells it was at most 250 nM.

As for `Cc1ncccc1-c1cnc(NCc2c(F)ccc3occc23)n2cc(C(=O)O)nc12` [Example 3, 5-(((5-fluorobenzofuran-4-yl)methyl)amino)-8-(2-methylpyridin-3-yl)imidazo[1,2-c]pyrimidine-2-carboxylic acid], the IC50 in experiment [1] is 100 to 500 nM; in experiment [2] (Homo sapiens), over 500 nM; with Karpas 422 cells (Homo sapiens) it was over 500 nM.

In the case of `Cc1cc(-c2cnc(NCc3c(F)ccc4c3CCO4)n3cc(C(N)=O)nc23)n(C)n1` [Example 11, 8-(1,3-dimethyl-1H-pyrazol-5-yl)-5-(((5-fluoro-2,3-dihydrobenzofuran-4-yl)methyl)amino)imidazo[1,2-c]pyrimidine-2-carboxamide], the half-maximal inhibitory concentration (IC50) in experiment [1] was under 100 nM; in experiment [2] (Homo sapiens), at most 100 nM; in the experiment on Karpas 422 cells (Homo sapiens), at most 250 nM.

In the case of `CN(C)C(=O)c1ccc(-c2cnc(NCc3c(F)ccc4c3CCO4)n3cc(C#N)nc23)c(Cl)c1` [Example 31, 3-chloro-4-(2-cyano-5-(((5-fluoro-2,3-dihydrobenzofuran-4-yl)methyl)amino)imidazo[1,2-c]pyrimidin-8-yl)-N,N-dimethylbenzamide], the 50% inhibitory concentration (IC50) was under 100 nM in experiment [1], at most 100 nM in experiment [2] (Homo sapiens) and at most 250 nM with Karpas 422 cells (Homo sapiens).

On to `Cc1cc(CN(C)C)ccc1-c1cnc(NCc2c(F)ccc3c2CCO3)n2cc(C#N)nc12` [Example 32, 8-(4-((dimethylamino)methyl)-2-methylphenyl)-5-(((5-fluoro-2,3-dihydrobenzofuran-4-yl)methyl)amino)imidazo[1,2-c]pyrimidine-2-carbonitrile], for which the 50% inhibitory concentration (IC50) in experiment [1] is 100 to 500 nM; in experiment [2] (Homo sapiens) it was at most 100 nM; in the experiment on Karpas 422 cells (Homo sapiens), at most 250 nM.

With `CN(C)C(=O)c1ccc(-c2cnc(NCc3c(F)ccc4c3CCO4)n3cc(C#N)nc23)cc1F` [Example 36, 4-(2-cyano-5-(((5-fluoro-2,3-dihydrobenzofuran-4-yl)methyl)amino)imidazo[1,2-c]pyrimidin-8-yl)-2-fluoro-N,N-dimethylbenzamide], the IC50 in experiment [1] was under 100 nM; in experiment [2] (Homo sapiens), at most 100 nM; with Karpas 422 cells (Homo sapiens), at most 250 nM.

Take `CN(C)C(=O)c1cc(F)c(-c2cnc(NCc3c(F)ccc4c3CCO4)n3cc(C#N)nc23)cc1F` [Example 38, 4-(2-cyano-5-(((5-fluoro-2,3-dihydrobenzofuran-4-yl)methyl)amino)imidazo[1,2-c]pyrimidin-8-yl)-2,5-difluoro-N,N-dimethylbenzamide]: the IC50 was under 100 nM in experiment [1], at most 100 nM in experiment [2] (Homo sapiens) and at most 250 nM with Karpas 422 cells (Homo sapiens).

`CN(C)Cc1cc(F)c(-c2cnc(NCc3c(F)ccc4c3CCO4)n3cc(C#N)nc23)cc1F` [Example 39, 8-(4-((dimethylamino)methyl)-2,5-difluorophenyl)-5-(((5-fluoro-2,3-dihydrobenzofuran-4-yl)methyl)amino)imidazo[1,2-c]pyrimidine-2-carbonitrile]: the IC50 was under 100 nM in experiment [1], at most 100 nM in experiment [2] (Homo sapiens) and at most 250 nM in the experiment with Karpas 422 cells (Homo sapiens).

For `N#Cc1cn2c(NCc3c(F)ccc4c3CCO4)ncc(-c3ccc(S(N)(=O)=O)cc3)c2n1` [Example 47, 4-(2-cyano-5-(((5-fluoro-2,3-dihydrobenzofuran-4-yl)methyl)amino)imidazo[1,2-c]pyrimidin-8-yl)benzenesulfonamide], the results for the 50% inhibitory concentration (IC50) (in experiment [1]; in experiment [2] (Homo sapiens); in the experiment with Karpas 422 cells (Homo sapiens)) were under 100 nM, at most 100 nM and at most 250 nM, respectively.

Turning to `Cc1cc(S(=O)(=O)N(C)C)ccc1-c1cnc(NCc2c(F)ccc3c2CCO3)n2cc(C#N)nc12` [Example 48, 4-(2-cyano-5-(((5-fluoro-2,3-dihydrobenzofuran-4-yl)methyl)amino)imidazo[1,2-c]pyrimidin-8-yl)-N,N,3-trimethylbenzenesulfonamide], the IC50 was under 100 nM in experiment [1], 100 to 500 nM in experiment [2] (Homo sapiens) and at most 250 nM in the experiment on Karpas 422 cells (Homo sapiens).

For `N#Cc1cn2c(NCc3c(F)ccc4c3CCO4)ncc(-c3ccc(CN4CCCC4=O)cc3)c2n1` [Example 49, 5-(((5-fluoro-2,3-dihydrobenzofuran-4-yl)methyl)amino)-8-(4-((2-oxopyrrolidin-1-yl)methyl)phenyl)imidazo[1,2-c]pyrimidine-2-carbonitrile], the IC50 was under 100 nM in experiment [1], 100 to 500 nM in experiment [2] (Homo sapiens) and at most 250 nM with Karpas 422 cells (Homo sapiens).

`COC1CN(Cc2ccc(-c3cnc(NCc4c(F)ccc5c4CCO5)n4cc(C#N)nc34)cc2)C1` [Example 50, 5-(((5-fluoro-2,3-dihydrobenzofuran-4-yl)methyl)amino)-8-(4-((3-methoxyazetidin-1-yl)methyl)phenyl)imidazo[1,2-c]pyrimidine-2-carbonitrile]: the half-inhibitory concentration (IC50) in experiment [1] was under 100 nM; in experiment [2] (Homo sapiens) it was 100 to 500 nM; in the experiment with Karpas 422 cells (Homo sapiens) it was at most 250 nM.

As to `N#Cc1cn2c(NCc3c(F)ccc4c3CCO4)ncc(-c3ccncn3)c2n1` [Example 57, 5-(((5-fluoro-2,3-dihydrobenzofuran-4-yl)methyl)amino)-8-(pyrimidin-4-yl)imidazo[1,2-c]pyrimidine-2-carbonitrile], the IC50 in experiment [1] is under 100 nM; in experiment [2] (Homo sapiens) it was 100 to 500 nM; in the experiment with Karpas 422 cells (Homo sapiens), at most 250 nM.

Turning to `CN(C)S(=O)(=O)c1ccc(-c2cnc(NCc3c(F)ccc4c3CCO4)n3cc(C#N)nc23)cc1` [Example 58, 4-(2-cyano-5-(((5-fluoro-2,3-dihydrobenzofuran-4-yl)methyl)amino)imidazo[1,2-c]pyrimidin-8-yl)-N,N-dimethylbenzenesulfonamide], the 50% inhibitory concentration (IC50) is under 100 nM in experiment [1], 100 to 500 nM in experiment [2] (Homo sapiens) and at most 250 nM with Karpas 422 cells (Homo sapiens).
